{
  "source": "patent US6245790A",
  "about": "“Oxazole compounds useful as PGE2 agonists and antagonists” (Fujisawa Pharmaceutical Co., Ltd., priority 1997, dated 2001)",
  "key": {"[1]": {"target": "T1, prostanoide receptor subtype (human EP4) (Homo sapiens, UniProt P35408)", "T1 construct": "expressed in transfected cells; host or cells: COS-7", "T1 sequence (P35408 whole entry)": "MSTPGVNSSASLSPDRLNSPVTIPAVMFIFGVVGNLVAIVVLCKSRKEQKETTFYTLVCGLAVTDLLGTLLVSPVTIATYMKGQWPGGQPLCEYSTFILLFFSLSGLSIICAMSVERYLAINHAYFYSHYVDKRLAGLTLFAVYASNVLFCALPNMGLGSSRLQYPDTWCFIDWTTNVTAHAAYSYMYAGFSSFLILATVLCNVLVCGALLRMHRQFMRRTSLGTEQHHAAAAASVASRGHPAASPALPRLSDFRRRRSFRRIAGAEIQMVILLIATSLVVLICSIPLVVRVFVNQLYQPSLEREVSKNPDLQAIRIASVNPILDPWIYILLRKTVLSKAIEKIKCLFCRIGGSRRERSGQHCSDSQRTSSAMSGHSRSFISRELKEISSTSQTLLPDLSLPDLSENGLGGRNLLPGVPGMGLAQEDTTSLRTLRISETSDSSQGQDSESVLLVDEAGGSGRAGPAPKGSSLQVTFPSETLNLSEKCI", "assay": "Binding assay using expression of prostanoide receptor subtype ([3H]-PGE2 competition, COS-7 membrane fraction)", "conditions": "compound at 10 μM, 1 hour at 30° C., COS-7 cells transfected human EP4", "method": "Binding Assay Using Expression of Prostanoide Receptor Subtype\nThe membrane fraction was prepared using COS-7 cells transfected prostanoide receptor subtype (human EP4).\nThe Standard assay mixture contained membrane fraction, [^3 H]-PGE2 in final volume of 0.25 ml was incubated for 1 hour at 30° C. The reaction was terminated by that the mixture was rapidly filtered through a glass filter (GF/B). Then the filter was washed by 4 ml of ice-cold buffer at two times. The radioactivity associated with the filter was measured by liquid scintillation counting.\nIn the experiment for competition of specific [^3 H]-PGE2 was added at a concentration of 10 μM. The following buffer was used in all reactions.\nBuffer: 20 mM Mes (pH 6.0), 1 mM EDTA, 10 mM MgCl2"}, "Mouse B Lymphocytes": {"system": "Mouse B Lymphocytes", "assay": "Effect on PGE2-induced IgE and IgG1 secretion in mouse B lymphocytes (LPS and IL-4, ELISA)", "assay_type": "cell-based, mouse (BDF1)", "conditions": "+ 10^-5 M Test Compound, LPS and IL-4, 6 days, Mean ± S.E.M. (n = 4)", "method": "Effect on IgE and IgG1 Secretion in Mouse B Lymphocytes\nInhibitory properties of a test compound against PGE2 -induced IgE and IgG1 secretion in isolated resting B lymphocytes of mice were tested. Resting mouse B lymphocytes were isolated from spleens of 12-week-old BDF1 male mice (Clea Japan Inc.) using adherent cell depletion, negative selection by FITC-anti-Thy 1.2 (30H12), FITC-anti-CD4 (GK1.5), FITC-anti-CD11b (M1/70) and FITC-anti-CD8a (5.-6.7) (Pharmingen) with anti-FITC Ab coating magnetic beads (PerSpective Daiagnostics) and Percoll gradient (Pharmacia). Resting B lymphocytes were cultured in flat-bottomed96-well microtiter plates (Becton Dickinson) at 1×10^6 cells per ml and preincubated with a test compound or DMSO control for 30 minutes. Then PGE2 were added at 10^-6 M. After 1 hour, LPS and IL-4 were added and incubated at 37° C. in a humidified atmosphere with 5% CO2. After 6 days, supernatants were collected and IgE and IgG1 were measured by the ELISA."}},
  "data": [
    {"smiles": "NC(=O)COc1cccc(C[C@@H]2CCCC=C2c2nc(-c3ccccc3)c(-c3ccccc3)o2)c1", "note": "[Test Compound (3), (S)-{3-{[2-(4,5-Diphenyloxazol-2-yl)-2-cyclohexen-1-yl]-methyl}phenoxy}actamide]", "values": [
      {"measurement": "inhibition at 10 µM", "setting": "[1]", "result": "> 80", "unit": "%"}
    ]},
    {"smiles": "O=C(O)c1ccc(C[C@@H]2CCCC=C2c2nc(-c3ccccc3)c(-c3ccccc3)o2)cc1", "note": "[Test Compound (2), (S)-4-{[2-(4,5-Diphenyloxazol-2-yl)-2-cyclohexen-1-yl]-methyl}benzoic acid]", "values": [
      {"measurement": "inhibition at 10 µM", "setting": "[1]", "result": "> 80", "unit": "%"}
    ]},
    {"smiles": "O=C([O-])c1cccc(C[C@@H]2CCCC=C2c2nc(-c3ccccc3)c(-c3ccccc3)o2)c1.[Na+]", "note": "[Test Compound, Sodium (S)-3-{[2-(4,5-diphenyloxazol-2-yl)-2-cyclohexen-1-yl]methyl}benzoate]", "values": [
      {"measurement": "IgG1 secretion", "setting": "Mouse B Lymphocytes; + 10^-6 M PGE2, # p < 0.01 v.s. Control (-PGE2)", "result": "1607.6 ± 150.9", "unit": "ng/mL"},
      {"measurement": "IgE secretion", "setting": "Mouse B Lymphocytes; + 10^-6 M PGE2, * p < 0.01 v.s. Control (+10^-6 M PGE2)", "result": "37.0 ± 7.0", "unit": "ng/mL"},
      {"measurement": "IgE secretion", "setting": "Mouse B Lymphocytes; -PGE2", "result": "21.2 ± 5.7", "unit": "ng/mL"},
      {"measurement": "IgG1 secretion", "setting": "Mouse B Lymphocytes; -PGE2", "result": "1053.0 ± 176.2", "unit": "ng/mL"}
    ]},
    {"smiles": "COc1cccc(C[C@@H]2CCC=C2c2nc(-c3ccccc3)c(-c3ccccc3)o2)c1", "note": "[Test Compound (1), (S)-2-(4,5-Diphenyloxazol-2-yl)-1-(3-methoxybenzyl)-2-cyclopentene]", "values": [
      {"measurement": "inhibition at 10 µM", "setting": "[1]", "result": "> 80", "unit": "%"}
    ]}
  ]
}
